From patent US20240158446A1, “CYCLIC COMPOUND HAVING SELECTIVE INHIBITORY ACTION ON KRAS OVER HRAS AND NRAS” (CHUGAI SEIYAKU KABUSHIKI KAISHA, priority 2021, published 2024) come the findings set out here.

Read-outs that look alike come from different tables or passages of the source. Where a SMILES comes first, the peptide text is derived from it. Bridges are numbered along the chain shown (N, C = ends). [ ]: non-standard residue; d: D form. The star is where a group is joined. hPhe(3,5-F2-4-CF3) = N[C@@H](CCc1cc(F)c(C(F)(F)F)c(F)c1)C(=O)O; hPhe(3-Cl-4-CF3) = N[C@@H](CCc1ccc(C(F)(F)F)c(Cl)c1)C(=O)O; NPrPhe(4-CF3) = CCCN[C@@H](Cc1ccc(C(F)(F)F)cc1)C(=O)O; NMeGly(cPent) = CN[C@H](C(=O)O)C1CCCC1; Pro(4,4-F2) = O=C(O)[C@@H]1CC(F)(F)CN1; Hyp = O=C(O)[C@@H]1C[C@@H](O)CN1; Gly(N-propargyl) = C#CCNCC(=O)O; NMeD = CN[C@@H](CC(=O)O)C(=O)O; NMeL = CN[C@@H](CC(C)C)C(=O)O; αMeS = C[C@](N)(CO)C(=O)O; Morpholide = C1CN(*)CCO1; Ac5c = NC1(C(=O)O)CCCC1; Aze = O=C(O)[C@@H]1CCN1; Sar = CNCC(=O)O

By Kd is commonly meant a measure of binding affinity in units of concentration.

Assay [1] deals with GDP-bound HRAS wild-type protein (Homo sapiens, UniProt P01112). Briefly: Binding to HRAS by surface plasmon resonance (SPR), Single Cycle Kinetics. The conditions noted are these: SPR, GDP-bound HRAS wild-type protein vs GDP-bound KRAS wild-type protein. On the technique in general: Surface plasmon resonance follows binding to a sensor surface in real time, without labels.
Assay [2] has as its target GDP-bound NRAS wild-type protein (Homo sapiens, UniProt P01111). Briefly: Binding to NRAS by surface plasmon resonance (SPR), Single Cycle Kinetics. The conditions noted are these: SPR, GDP-bound NRAS wild-type protein vs GDP-bound KRAS wild-type protein.
For assay [3], the target named is GDP-bound KRAS wild-type protein (Homo sapiens, UniProt P01116). Briefly: Binding to KRAS by surface plasmon resonance (SPR), Single Cycle Kinetics. The settings on record: GDP-bound KRAS wild-type protein, read-out: KRAS KD.
Setting [4] is: SPR Single Cycle Kinetics, 1:1 binding model.

Chain of GDP-bound HRAS wild-type protein (P01112 whole entry): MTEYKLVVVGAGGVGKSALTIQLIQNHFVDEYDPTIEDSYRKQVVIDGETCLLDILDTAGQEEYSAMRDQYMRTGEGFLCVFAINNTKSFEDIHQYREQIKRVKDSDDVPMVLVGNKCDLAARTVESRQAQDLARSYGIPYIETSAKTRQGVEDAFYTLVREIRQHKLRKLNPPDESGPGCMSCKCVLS
Chain of GDP-bound NRAS wild-type protein (P01111 whole entry): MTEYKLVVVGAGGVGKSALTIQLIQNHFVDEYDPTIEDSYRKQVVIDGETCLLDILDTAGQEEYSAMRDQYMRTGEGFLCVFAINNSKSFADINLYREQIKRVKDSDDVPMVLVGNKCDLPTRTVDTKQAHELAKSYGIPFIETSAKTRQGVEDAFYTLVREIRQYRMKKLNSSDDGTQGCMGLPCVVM
Chain of GDP-bound KRAS wild-type protein (P01116 whole entry): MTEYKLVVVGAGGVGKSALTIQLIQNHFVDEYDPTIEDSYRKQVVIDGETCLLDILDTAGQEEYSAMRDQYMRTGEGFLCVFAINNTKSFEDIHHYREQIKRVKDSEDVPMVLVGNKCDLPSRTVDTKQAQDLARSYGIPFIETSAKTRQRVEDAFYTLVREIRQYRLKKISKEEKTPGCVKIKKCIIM

For the molecule `CCCN1C(=O)CN(C)C(=O)CNC(=O)[C@H]([C@@H](C)CC)NC(=O)[C@H](CC(C)C)N(C)C(=O)C[C@@H](C(=O)N2CCOCC2)NC(=O)[C@H](C2CCCC2)N(C)C(=O)C2(CCCC2)NC(=O)[C@@H]2C[C@@H](OCC)CN2C(=O)[C@H](CCc2ccc(C(F)(F)F)c(Cl)c2)NC(=O)CN(C)C(=O)[C@@H]1Cc1ccc(C(F)(F)F)cc1` [PP0329] ([NMeL]IG[Sar][NPrPhe(4-CF3)][Sar][hPhe(3-Cl-4-CF3)][Hyp](Et)[Ac5c][NMeGly(cPent)]D-Morpholide; lactam N-11), the “HRAS/KRAS (ratio of KD value for HRAS to KD value for KRAS)” value in assay [1] was “C (A compound having a KD ratio of 0.1 or more and less than 3 is denoted as C)”. The “NRAS/KRAS (ratio of KD value for NRAS to KD value for KRAS)” value in assay [2] was “B (a compound having 3 or more and less than 10 is denoted as B)”. Further, the equilibrium dissociation constant (Kd) in assay [3] (setting [4]) was 0.74 nM.
With `CCO[C@@H]1C[C@H]2C(=O)NC3(CCC3)C(=O)N(C)[C@@H](C(C)C)C(=O)N(C)[C@H](C(=O)N(C)C)CC(=O)N(C)[C@@H](CC)C(=O)N[C@@H]([C@@H](C)CC)C(=O)N(C)CC(=O)N(C)[C@H]3C/C=C\CCN(C3=O)[C@@H](Cc3ccc(C(F)(F)F)cc3)C(=O)N(C)CC(=O)N[C@@H](CCc3cc(F)c(C(F)(F)F)c(F)c3)C(=O)N2C1` [PP1088], the “HRAS/KRAS (ratio of KD value for HRAS to KD value for KRAS)” value in assay [1] is “A (a compound having 10 or more and less than 20 is denoted as A)”. Also, in assay [2], the “NRAS/KRAS (ratio of KD value for NRAS to KD value for KRAS)” value was “A (a compound having 10 or more and less than 20 is denoted as A)”. Further, the dissociation constant (Kd) in assay [3] (SPR, Single Cycle Kinetics) was determined as 0.55 nM.
As for `CCCN1C(=O)CN(C)C(=O)[C@@H]2CCN2C(=O)[C@H]([C@@H](C)CC)NC(=O)[C@H](CC(C)C)N(C)C(=O)C[C@@H](C(=O)N2CCOCC2)N(C)C(=O)[C@H](C2CCCC2)N(C)C(=O)C2(CCCC2)NC(=O)[C@@H]2CC(F)(F)CN2C(=O)[C@H](CCc2ccc(C(F)(F)F)c(Cl)c2)NC(=O)CN(C)C(=O)[C@@H]1Cc1ccc(C(F)(F)F)cc1` [PP0403] ([NMeL]I[Aze][Sar][NPrPhe(4-CF3)][Sar][hPhe(3-Cl-4-CF3)][Pro(4,4-F2)][Ac5c][NMeGly(cPent)][NMeD]-Morpholide; lactam N-11), in assay [1], the “HRAS/KRAS (ratio of KD value for HRAS to KD value for KRAS)” value is “B (a compound having 3 or more and less than 10 is denoted as B)”. Besides, the “NRAS/KRAS (ratio of KD value for NRAS to KD value for KRAS)” value in assay [2] was “B (a compound having 3 or more and less than 10 is denoted as B)”. In addition, the dissociation constant (Kd) in assay [3] (setting [4]) turned out to be 0.83 nM.
`CCCOC[C@H]1C(=O)N[C@@H]([C@@H](C)CC)C(=O)N(C)CC(=O)N(C)[C@H]2C/C=C\CCN(C2=O)[C@@H](Cc2ccc(C(F)(F)F)cc2)C(=O)N(C)CC(=O)N[C@@H](CCc2cc(F)c(C(F)(F)F)c(F)c2)C(=O)N2C[C@H](OCC)C[C@H]2C(=O)NC2(CC(C)(C)C2)C(=O)N(C)[C@@H](C2CCCC2)C(=O)N(C)[C@H](C(=O)N(CC)CC)CC(=O)N1C` [PP1575]: in assay [1] (KD ratio class), the “HRAS/KRAS (ratio of KD value for HRAS to KD value for KRAS)” value is “B (a compound having 3 or more and less than 10 is denoted as B)”. Further, in assay [2] (KD ratio class), the “NRAS/KRAS (ratio of KD value for NRAS to KD value for KRAS)” value was “B (a compound having 3 or more and less than 10 is denoted as B)”. Moreover, in assay [3] (SPR, Single Cycle Kinetics, 1:1 binding model), the Kd is 0.55 nM.
As to `CCO[C@@H]1C[C@H]2C(=O)NC3(CCCC3)C(=O)N(C)[C@@H](C3CCCC3)C(=O)N(C)[C@H](C(=O)N(C)C)CC(=O)N(C)[C@@H](CC(C)C)C(=O)N[C@@H]([C@@H](C)CC)C(=O)N(C)CC(=O)N(C)[C@H]3C[C@@H](C)CCN(C3=O)[C@@H](Cc3ccc(C(F)(F)F)cc3)C(=O)N(C)CC(=O)N[C@@H](CCc3cc(F)c(C(F)(F)F)c(F)c3)C(=O)N2C1` [PP1017], the “HRAS/KRAS (ratio of KD value for HRAS to KD value for KRAS)” value in assay [1] was “B (a compound having 3 or more and less than 10 is denoted as B)”. Moreover, the “NRAS/KRAS (ratio of KD value for NRAS to KD value for KRAS)” value in assay [2] is “C (A compound having a KD ratio of 0.1 or more and less than 3 is denoted as C)”. Moreover, in assay [3] (SPR, Single Cycle Kinetics), the dissociation constant (Kd) amounted to 0.048 nM.
Turning to `CCCN1C(=O)CN(C)C(=O)CN(C)C(=O)[C@H]([C@@H](C)CC)NC(=O)[C@H](CC(C)C)N(C)C(=O)C[C@@H](C(=O)N2CCOCC2)N(C)C(=O)[C@H](C2CCCC2)N(C)C(=O)C2(CCCC2)NC(=O)[C@@H]2C[C@@H](OC)CN2C(=O)[C@H](CCc2ccc(C(F)(F)F)c(Cl)c2)NC(=O)CN(C)C(=O)[C@@H]1Cc1ccc(C(F)(F)F)cc1` [PP0262] ([NMeL]I[Sar][Sar][NPrPhe(4-CF3)][Sar][hPhe(3-Cl-4-CF3)][Hyp](Me)[Ac5c][NMeGly(cPent)][NMeD]-Morpholide; lactam N-11), the “HRAS/KRAS (ratio of KD value for HRAS to KD value for KRAS)” value in assay [1] was “B (a compound having 3 or more and less than 10 is denoted as B)”. For the same molecule, the “NRAS/KRAS (ratio of KD value for NRAS to KD value for KRAS)” value in assay [2] was “B (a compound having 3 or more and less than 10 is denoted as B)”. Besides, in assay [3] (setting [4]), the Kd worked out at 0.044 nM.
With `C#CCN1CC(=O)N(C)CC(=O)N(CCC)[C@@H](Cc2ccc(C(F)(F)F)cc2)C(=O)N(C)CC(=O)N[C@@H](CCc2ccc(C(F)(F)F)c(Cl)c2)C(=O)N2CCC[C@H]2C(=O)NC2(CCCC2)C(=O)N(C)[C@@H](C2CCCC2)C(=O)N(C)[C@H](C(=O)N2CCOCC2)CC(=O)N(C)[C@@H](CC(C)C)C(=O)N[C@@H]([C@@H](C)CC)C1=O` [PP0750] ([NMeL]I[Gly(N-propargyl)][Sar][NPrPhe(4-CF3)][Sar][hPhe(3-Cl-4-CF3)]P[Ac5c][NMeGly(cPent)][NMeD]-Morpholide; lactam N-11), the “HRAS/KRAS (ratio of KD value with respect to HRAS to KD value with respect to KRAS)” value in assay [1] was “C (A compound having a KD ratio of 0.1 or more and less than 3 is denoted as C)”. Further, in assay [2], the “NRAS/KRAS (ratio of KD value with respect to NRAS to KD value with respect to KRAS)” value is “B (a compound having 3 or more and less than 10 is denoted as B)”. In assay [3] (setting [4]), the Kd turned out to be 0.37 nM.
As for `CC[C@H](C)[C@@H]1NC(=O)[C@H](CC(C)C)N(C)C(=O)C[C@@H](C(=O)N2CCOCC2)N(C)C(=O)[C@H](C2CCCC2)NC(=O)C2(CCCC2)NC(=O)[C@@H]2CCCN2C(=O)[C@H](CCc2cc(F)c(C(F)(F)F)c(F)c2)NC(=O)CN(C)C(=O)[C@H](Cc2ccc(C(F)(F)F)cc2)N2CCCC[C@@H](C2=O)N(C)C(=O)CN(C)C1=O` [PP0540], the “HRAS/KRAS (ratio of KD value with respect to HRAS to KD value with respect to KRAS)” value in assay [1] was “B (a compound having 3 or more and less than 10 is denoted as B)”. In addition, the “NRAS/KRAS (ratio of KD value with respect to NRAS to KD value with respect to KRAS)” value in assay [2] is “B (a compound having 3 or more and less than 10 is denoted as B)”. Also, in assay [3] (setting [4]), the Kd worked out at 17 nM.
For `CCCN1C(=O)[C@@H]2CCN2C(=O)CN(C)C(=O)[C@H]([C@@H](C)CC)NC(=O)[C@H](CC(C)C)N(C)C(=O)C[C@@H](C(=O)N2CCOCC2)N(C)C(=O)[C@H](C2CCCC2)N(C)C(=O)[C@](C)(COC)NC(=O)[C@@H]2CCCN2C(=O)[C@H](CCc2cc(F)c(C(F)(F)F)c(F)c2)NC(=O)CN(C)C(=O)[C@@H]1Cc1ccc(C(F)(F)F)cc1` [PP0798] ([NMeL]I[Sar][Aze][NPrPhe(4-CF3)][Sar][hPhe(3,5-F2-4-CF3)]P[αMeS](Me)[NMeGly(cPent)][NMeD]-Morpholide; lactam N-11), in assay [1], the “HRAS/KRAS (ratio of KD value with respect to HRAS to KD value with respect to KRAS)” value was “B (a compound having 3 or more and less than 10 is denoted as B)”. Moreover, in assay [2], the “NRAS/KRAS (ratio of KD value with respect to NRAS to KD value with respect to KRAS)” value was “C (A compound having a KD ratio of 0.1 or more and less than 3 is denoted as C)”. For the same molecule, in assay [3] (setting [4]), the Kd was 1.9 nM.
